Reference: the NIST ThermoML archive (doi:10.1021/je060271a)
Values joined by “and” are separate entries in the source; they are usually repeats but may differ in a detail not shown here. Equal values may be shown once.

Conditions: Liquid, Vibrating tube method

CCCCCCC(=O)OCC(COC(=O)CCCCCC)(COC(=O)CCCCCC)COC(=O)CCCCCC [pentaerythritol tetraheptanoate]
Conditions | mass density
283.15 K, 2785.2 kPa | 987.5 kg/m3
283.15 K, 4763 kPa | 988.5 kg/m3
283.15 K, 4768.7 kPa | 988.7 kg/m3
283.15 K, 5143.5 kPa | 988.8 kg/m3
283.15 K, 5150.3 kPa | 988.9 kg/m3
283.15 K, 5157.6 kPa | 988.7 kg/m3
283.15 K, 5164.1 kPa | 988.8 kg/m3
283.15 K, 5170.9 kPa | 988.9 kg/m3
283.15 K, 5178.5 kPa | 988.9 kg/m3
283.15 K, 5185.2 kPa | 988.8 kg/m3
283.15 K, 5558.2 kPa | 989.1 kg/m3
283.15 K, 5573.4 kPa | 989.1 kg/m3
283.15 K, 5748.5 kPa | 989.3 kg/m3
283.15 K, 5758 kPa | 989.2 kg/m3
283.15 K, 5766.1 kPa | 989.3 kg/m3
283.15 K, 9627.4 kPa | 991.5 kg/m3
283.15 K, 9754 kPa | 991.6 kg/m3
283.15 K, 9827.4 kPa | 991.6 kg/m3
283.15 K, 15376 kPa | 994.5 kg/m3
283.15 K, 15402 kPa | 994.5 kg/m3
283.15 K, 15424 kPa | 994.5 kg/m3
283.15 K, 15447 kPa | 994.5 kg/m3
283.15 K, 15473 kPa | 994.5 kg/m3
283.15 K, 15496 kPa | 994.5 kg/m3
283.15 K, 15518 kPa | 994.4 kg/m3
283.15 K, 15545 kPa | 994.6 kg/m3
283.15 K, 16561 kPa | 995.2 kg/m3
283.15 K, 16643 kPa | 995.1 kg/m3
283.15 K, 16700 kPa | 995.2 kg/m3
283.15 K, 17302 kPa | 995.5 kg/m3
283.15 K, 17330 kPa | 995.5 kg/m3
283.15 K, 17392 kPa | 995.5 kg/m3
283.15 K, 17420 kPa | 995.6 kg/m3
283.15 K, 19724 kPa | 996.7 kg/m3
283.15 K, 24690 kPa | 999.4 kg/m3
283.15 K, 24805 kPa | 999.3 kg/m3
283.15 K, 25965 kPa | 999.9 kg/m3
283.15 K, 26012 kPa | 1000.1 kg/m3
283.15 K, 26052 kPa | 1000.1 kg/m3
283.15 K, 26093 kPa | 1000.1 kg/m3
283.15 K, 26133 kPa | 1000.1 kg/m3
283.15 K, 26183 kPa | 1000.1 kg/m3
283.15 K, 26224 kPa | 1000.1 kg/m3
283.15 K, 26317 kPa | 1000.1 kg/m3
283.15 K, 26361 kPa | 1000.1 kg/m3
283.15 K, 26458 kPa | 1000.2 kg/m3
283.15 K, 26749 kPa | 1000.4 kg/m3
283.15 K, 26807 kPa | 1000.4 kg/m3
283.15 K, 26833 kPa | 1000.4 kg/m3
283.15 K, 26860 kPa | 1000.5 kg/m3
283.15 K, 26892 kPa | 1000.5 kg/m3
283.15 K, 26918 kPa | 1000.5 kg/m3
283.15 K, 26978 kPa | 1000.5 kg/m3
283.15 K, 27117 kPa | 1000.7 kg/m3
283.15 K, 27150 kPa | 1000.5 kg/m3
283.15 K, 27176 kPa | 1000.7 kg/m3
283.15 K, 27209 kPa | 1000.6 kg/m3
283.15 K, 27237 kPa | 1000.6 kg/m3
283.15 K, 27264 kPa | 1000.6 kg/m3
283.15 K, 27324 kPa | 1000.7 kg/m3
283.15 K, 27352 kPa | 1000.7 kg/m3
283.15 K, 27599 kPa | 1000.8 kg/m3
283.15 K, 27618 kPa | 1000.8 kg/m3
283.15 K, 27642 kPa | 1000.9 kg/m3
283.15 K, 27661 kPa | 1000.8 kg/m3
283.15 K, 27681 kPa | 1000.9 kg/m3
283.15 K, 27896 kPa | 1001.1 kg/m3
283.15 K, 27916 kPa | 1001.1 kg/m3
283.15 K, 27936 kPa | 1000.9 kg/m3
283.15 K, 27956 kPa | 1001 kg/m3
283.15 K, 28022 kPa | 1001 kg/m3
283.15 K, 30230 kPa | 1002.1 kg/m3
283.15 K, 33971 kPa | 1003.9 kg/m3
283.15 K, 34009 kPa | 1004.1 kg/m3
283.15 K, 34041 kPa | 1003.9 kg/m3
283.15 K, 34067 kPa | 1004 kg/m3
283.15 K, 34100 kPa | 1004.1 kg/m3
283.15 K, 34146 kPa | 1004.3 kg/m3
283.15 K, 34179 kPa | 1004 kg/m3
283.15 K, 34214 kPa | 1004.2 kg/m3
283.15 K, 34255 kPa | 1004.1 kg/m3
283.15 K, 34291 kPa | 1004.1 kg/m3
283.15 K, 34334 kPa | 1004.2 kg/m3 and 1004.1 kg/m3
283.15 K, 34346 kPa | 1004.1 kg/m3
283.15 K, 34372 kPa | 1004.2 kg/m3
283.15 K, 34412 kPa | 1004.3 kg/m3
283.15 K, 34450 kPa | 1004.2 kg/m3
283.15 K, 34481 kPa | 1004.2 kg/m3
283.15 K, 34492 kPa | 1004.2 kg/m3
283.15 K, 34503 kPa | 1004.4 kg/m3
283.15 K, 34516 kPa | 1004.2 kg/m3
283.15 K, 34528 kPa | 1004.3 kg/m3
283.15 K, 34542 kPa | 1004.4 kg/m3
283.15 K, 34553 kPa | 1004.4 kg/m3
283.15 K, 34565 kPa | 1004.4 kg/m3
283.15 K, 34574 kPa | 1004.3 kg/m3
283.15 K, 34579 kPa | 1004.3 kg/m3
283.15 K, 34594 kPa | 1004.5 kg/m3
283.15 K, 34601 kPa | 1004.3 kg/m3
283.15 K, 34603 kPa | 1004.2 kg/m3
283.15 K, 34606 kPa | 1004.3 kg/m3
303.14 K, 99.6 kPa | 970.8 kg/m3
303.14 K, 99.8 kPa | 970.7 kg/m3 and 970.8 kg/m3 and 970.9 kg/m3
303.14 K, 99.9 kPa | 970.8 kg/m3 and 970.9 kg/m3 and 970.7 kg/m3
303.14 K, 100.1 kPa | 970.7 kg/m3 and 970.6 kg/m3
303.14 K, 100.3 kPa | 970.7 kg/m3
303.14 K, 100.6 kPa | 970.8 kg/m3
303.14 K, 101.7 kPa | 970.7 kg/m3
303.14 K, 103.8 kPa | 970.7 kg/m3
303.14 K, 107.4 kPa | 970.8 kg/m3
303.14 K, 118.5 kPa | 970.8 kg/m3
303.14 K, 136.8 kPa | 970.7 kg/m3
